Laboratory results taken from ChEMBL document CHEMBL3091302, “Kadcotriones A-C: tricyclic triterpenoids from Kadsura coccinea” (J Nat Prod, 2013).

How the values were obtained:
[1] = test system: SW480; assay: Cytotoxicity against human SW480 cells after 48 hrs by MTT assay; assay type: functional, cell-based; conditions: SW480, 48 h
[2] = test system: MCF7; assay: Cytotoxicity against human MCF7 cells after 48 hrs by MTT assay; assay type: functional, cell-based; conditions: MCF7, 48 h
[3] = test system: A549; assay: Cytotoxicity against human A549 cells after 48 hrs by MTT assay; assay type: functional, cell-based; conditions: A549, 48 h
[4] = test system: SMMC-7721; assay: Cytotoxicity against human SMMC7721 cells after 48 hrs by MTT assay; assay type: functional, cell-based; conditions: SMMC-7721, 48 h
[5] = test system: Human immunodeficiency virus 1; assay: Antiviral activity against HIV1 3B infected in human C8166 cells assessed as inhibition of viral-induced cytopathogenicity by syncytium formation assay; assay type: functional, organism-based; conditions: Human immunodeficiency virus 1, 3B

Compound | IC50 [1] [µM] | IC50 [2] [µM] | IC50 [3] [µM] | IC50 [4] [µM] | EC50 [5] [µM]
C/C(=C\CC[C@@H](C)[C@H]1CC[C@@]2(C)[C@@H]3CC[C@H]4C(C)(C)C(=O)CC[C@]4(C)C3=C[C@@H](O)[C@]12C)C(=O)O | > 40 | > 40 | > 40 | > 40 | 54.8
C/C(=C\CC[C@@H](C)C(=O)CC[C@]1(C)C(=O)C=C2[C@H]1CC[C@H]1C(C)(C)C(=O)CC[C@]21C)C(=O)O | > 40 | > 40 | > 40 | > 40 | 30.3
CC1=C[C@]2(O)[C@@H](CC[C@H]3C(C)(C)C(=O)CC[C@@]32C)[C@@](C)(CCC(=O)[C@H](C)CC/C=C(\C)C(=O)O)C1=O | > 40 | > 40 | > 40 | > 40 | 
Cc1cn([C@H]2C[C@H](N=[N+]=[N-])[C@@H](CO)O2)c(=O)[nH]c1=O [ZIDOVUDINE] |  |  |  |  | 0.02
